The target of data set [1] is T1, Aromatase (Homo sapiens, UniProt P11511).
T1 sequence (P11511 whole entry): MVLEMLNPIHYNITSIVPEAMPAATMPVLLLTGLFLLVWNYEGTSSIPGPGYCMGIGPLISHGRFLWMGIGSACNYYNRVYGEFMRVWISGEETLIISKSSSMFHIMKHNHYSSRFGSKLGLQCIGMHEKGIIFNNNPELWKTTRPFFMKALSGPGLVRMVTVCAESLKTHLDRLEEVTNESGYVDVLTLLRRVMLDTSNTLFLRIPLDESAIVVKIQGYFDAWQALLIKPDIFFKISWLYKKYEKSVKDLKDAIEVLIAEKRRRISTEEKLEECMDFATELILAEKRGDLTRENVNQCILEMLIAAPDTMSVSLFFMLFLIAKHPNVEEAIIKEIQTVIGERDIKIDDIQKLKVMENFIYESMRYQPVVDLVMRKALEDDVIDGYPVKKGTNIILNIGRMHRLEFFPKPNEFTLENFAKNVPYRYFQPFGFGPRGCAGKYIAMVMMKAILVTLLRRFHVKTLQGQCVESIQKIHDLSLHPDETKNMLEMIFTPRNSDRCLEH
Description: Relative potency as IC50 compared to aminoglutethimide IC50=[…] uM.

The target of data set [2] is T1, Aromatase.
Description: Inhibition of cytochrome P450 19A1 of human placental microsomes with [1-beta,2beta-3H]testosterone
The target of data set [3] is T2, Cytochrome P450 17A1 (steroid 17-alpha-hydroxylase/17,20 lyase) (Rattus norvegicus, UniProt P11715).
T2 sequence (P11715 whole entry): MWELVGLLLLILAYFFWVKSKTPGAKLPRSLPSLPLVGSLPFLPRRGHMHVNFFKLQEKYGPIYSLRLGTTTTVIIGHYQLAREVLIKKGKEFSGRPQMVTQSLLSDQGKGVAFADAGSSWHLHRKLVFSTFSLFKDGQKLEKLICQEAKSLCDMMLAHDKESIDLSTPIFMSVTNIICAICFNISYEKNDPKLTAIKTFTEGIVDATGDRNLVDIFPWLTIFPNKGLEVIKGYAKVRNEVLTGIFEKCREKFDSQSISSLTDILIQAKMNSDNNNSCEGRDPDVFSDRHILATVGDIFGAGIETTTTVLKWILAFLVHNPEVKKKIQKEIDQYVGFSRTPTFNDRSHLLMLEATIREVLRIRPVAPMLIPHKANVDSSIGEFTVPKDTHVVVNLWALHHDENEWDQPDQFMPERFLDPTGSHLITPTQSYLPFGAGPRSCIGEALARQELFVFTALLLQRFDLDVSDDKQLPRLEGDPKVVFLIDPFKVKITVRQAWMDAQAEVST
In words: Inhibition Cytochrome P450 17A1 of rat testicular microsomes at 2.5 uM with 25 uM progesterone. The following applies: probe progesterone (25 uM).

Data set [4] deals with T1, Aromatase. In words: In vitro inhibition of cytochrome P450 19A1 from human placental microsomes with 2.5 uM [1-beta,2beta-3H]testosterone.

Structures are written as SMILES.

Broadly, the IC50 is the point on the concentration scale where inhibition reaches its midpoint. A low value points to inhibition by little substance. `CCN1CCc2cccc(C(c3ccc(F)cc3)n3cncn3)c21` (stereo unspecified): on Aromatase [1], the Relative potency came out at 10. Besides, the half-maximal inhibitory concentration (IC50) on Aromatase [2] turned out to be 2.9 µM.

For orientation: inhibition means the change of the read-out against control, counted positive when it falls. Read a low inhibition as a weak effect. `CCN1CCc2cccc(C(c3ccc(F)cc3)n3ccnc3)c21` (stereo unspecified) had an inhibition at 2.5 µM in data set [3] of 37%. Also, the 50% inhibitory concentration (IC50) against Aromatase [4] came to 0.0615 µM.

With `CCN1CCc2cc(Br)cc(C(c3ccc(F)cc3)n3ccnc3)c21` (stereo unspecified), at 2.5 µM the inhibition in data set [3] was 8%. This compound had an IC50 on Aromatase [2] of 0.09 µM.

As for `CCn1ccc2cccc(C(c3cccc(Cl)c3)n3ccnc3)c21` (stereo unspecified), the inhibition at 2.5 µM in data set [3] is 43%.

In the case of `CCn1ccc2cccc(C(c3ccc(F)cc3)n3ccnc3)c21` (stereo unspecified), the inhibition at 2.5 µM in data set [3] is 37%. In addition, at Aromatase [2], half-maximal inhibition (IC50) was put at 0.062 µM.

The compound `CCN1CCc2cc(Cl)cc(C(c3ccc(F)cc3)n3ccnc3)c21` (stereo unspecified) returned an inhibition at 2.5 µM in data set [3] of 23%.

With `CCn1ccc2cccc(C(c3ccc(Cl)cc3)n3ccnc3)c21` (stereo unspecified), in data set [3], the inhibition at 2.5 µM is 29%.

Take `CCn1ccc2cc(Br)cc(C(c3ccc(F)cc3)n3ccnc3)c21` (stereo unspecified): the inhibition at 2.5 µM in data set [3] was 9%. Further, the half-maximal inhibitory concentration (IC50) against Aromatase [2] amounted to 0.2 µM.

Turning to `CCN1CCc2cccc(C(c3cccc(Cl)c3)n3ccnc3)c21` (stereo unspecified), testing at 2.5 µM in data set [3] gave an inhibition of 38%.

On to `CCn1ccc2cccc(C(c3ccc(Br)cc3)n3ccnc3)c21` (stereo unspecified), for which, in data set [3], the inhibition at 2.5 µM came out at 29%. Further, at Aromatase [2], the IC50 is 0.07 µM.

Source of the values: ChEMBL document CHEMBL1136431, “Preparation and pharmacological profile of 7-(alpha-azolylbenzyl)-1H-indoles and indolines as new aromatase inhibitors” (Bioorg Med Chem Lett, 2003).
